According to paper PMC6152703, “Evaluation of the Antidiabetic Activity and Chemical Composition of Geranium collinum Root Extracts—Computational and Experimental Investigations” (Molecules : A Journal of Synthetic Chemistry and Natural …, 2017):
Read-outs that look alike come from different tables or passages of the source.

Legend:
PTP-1B = target: T1, PTP-1B (Homo sapiens, UniProt P18031); assay: PTP-1B enzyme inhibition assay; assay type: biochemical; settings: in vitro enzyme inhibition; for IC50: read-out: Antidiabetic Activity (PTP-1B) IC50 Values (converted)
T1 sequence (P18031 1-435): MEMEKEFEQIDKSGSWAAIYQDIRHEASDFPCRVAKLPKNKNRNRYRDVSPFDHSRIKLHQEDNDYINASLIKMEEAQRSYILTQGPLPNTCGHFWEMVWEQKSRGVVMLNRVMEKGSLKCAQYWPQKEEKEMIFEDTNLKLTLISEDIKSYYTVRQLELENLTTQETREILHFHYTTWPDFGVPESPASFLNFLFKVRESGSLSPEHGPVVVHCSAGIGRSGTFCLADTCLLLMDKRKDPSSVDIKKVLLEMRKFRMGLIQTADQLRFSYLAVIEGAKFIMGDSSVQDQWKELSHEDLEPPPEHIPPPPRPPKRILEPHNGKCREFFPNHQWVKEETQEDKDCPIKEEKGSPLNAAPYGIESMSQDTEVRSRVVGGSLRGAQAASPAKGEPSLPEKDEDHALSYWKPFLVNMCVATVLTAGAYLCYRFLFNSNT
Description: (§1) The antidiabetic effect of gallic acid was evaluated in vitro on inhibitory enzymes (α-glucosidase and α-amylase). Antidiabetic activity was determined using PTP-1B inhibition and α-glucosidase procedures. PTP-1B is a negative regulator of the insulin signaling pathway. All extracts of G. collinum were obtained after a period of extraction of 2 h. […] It is well known that polyphenols can provide health benefits to humans attributed to their strong radical-scavenging and antioxidant effects.

α-glucosidase = α-glucosidase (Saccharomyces cerevisiae, UniProt P53341); assay type: biochemical
Sequence of α-glucosidase (P53341 whole entry): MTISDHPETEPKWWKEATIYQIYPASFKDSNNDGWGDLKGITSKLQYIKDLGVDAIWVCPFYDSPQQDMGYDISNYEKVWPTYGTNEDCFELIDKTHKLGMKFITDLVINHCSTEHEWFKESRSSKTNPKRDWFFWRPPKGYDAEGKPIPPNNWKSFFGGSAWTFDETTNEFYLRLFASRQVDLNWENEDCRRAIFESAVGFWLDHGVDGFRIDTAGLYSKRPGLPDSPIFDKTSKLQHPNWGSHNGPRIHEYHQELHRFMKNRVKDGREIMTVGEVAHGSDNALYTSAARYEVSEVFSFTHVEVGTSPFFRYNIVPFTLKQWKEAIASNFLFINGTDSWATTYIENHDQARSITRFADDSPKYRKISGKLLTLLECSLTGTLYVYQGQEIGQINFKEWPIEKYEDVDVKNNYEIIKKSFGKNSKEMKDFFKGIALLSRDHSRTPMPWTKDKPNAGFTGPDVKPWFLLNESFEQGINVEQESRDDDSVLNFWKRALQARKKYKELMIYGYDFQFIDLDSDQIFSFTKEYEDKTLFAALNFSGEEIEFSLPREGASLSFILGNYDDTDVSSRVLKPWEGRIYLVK
Description: as §1
α-Glucosidase inhibitory activities were evaluated according to the chromogenic method described by.

[1] = DPPH scavenging assay (antioxidant activity); settings: 30 min, 517 nm
Description: The majority of the antioxidant activities (such as free radical scavenging) of herbal medicines, vegetables and fruits may be due to their phenolic compounds. A lower IC50 value than the standard vitamin C implied a significant antioxidant activity of the tested samples.
Antioxidant activity was measured using the DPPH (1,1-diphenyl-2-picrylhydrazyl) scavenging assay procedure as published in the literature. The extracts were dissolved in DMSO in a concentration of 100 µg/mL. Different concentrations of each extract were prepared in DMSO. Sample solution in different concentrations was added at 2.5 mL in each well of the 96 micro well plate. Into each well was added 1 mL of 0.3 mM DPPH solution in ethanol to produce the test solutions. DMSO (1 mL) was added to produce the blank solutions. Negative control sample was prepared by mixing 1 mL of DPPH solution with 2.5 mL of DMSO. The solutions were kept in the dark at room temperature for 30 min. Absorbance was measured at the wavelength of 517 nm. Ascorbic acid (vitamin C) was used as the standard sample.

SMILES: O=C(O[C@@H]1O[C@@H]2COC(=O)c3cc(O)c(O)c(O)c3-c3c(cc(O)c(O)c3O)C(=O)O[C@H]([C@H]1O)[C@@H]2O)c1cc(O)c(O)c(O)c1 [Corilagin, Corilagin (1-O-galloyl-3,6-O-hexahydroxydiphenoyl-β-D-glucose)]
- IC50 (PTP-1B): 1.37 µM
- antidiabetic activities in the α-glucosidase inhibition assay (in words) (α-glucosidase; in vitro enzyme inhibition): potent antidiabetic activities

SMILES: O=C(O)/C=C/c1ccc(O)c(O)c1 [Caffeic acid]
- IC50 (PTP-1B): 199 µM

SMILES: Oc1cc(O)c2c(c1)OC(c1ccc(O)c(O)c1)C(O)C2 (single isomer, unassigned; (+)) [Catechin, (+)-Catechin]
- IC50 (PTP-1B): 2.14 µM
- antidiabetic activities in the α-glucosidase inhibition assay (in words) (α-glucosidase): potent antidiabetic activities

SMILES: O=C1O[C@H]([C@@H](O)CO)C(O)=C1O [Vitamin C, Ascorbic acid]
- Antioxidant Activity IC50 Values [1]: 5.34 ± 0.42 µg/mL

SMILES: Oc1cc(O)c2c(c1)O[C@H](c1ccc(O)c(O)c1)[C@H](O)C2 [Epicatechin, (–)-Epicatechin]
- IC50 (PTP-1B): 0.792 µM
- antidiabetic activities in the α-glucosidase inhibition assay (in words) (α-glucosidase): potent antidiabetic activities

SMILES: O=C(O)c1cc(O)c(O)c(O)c1 [Gallic acid]
- Antidiabetic Activity (PTP-1B) IC50 Values (PTP-1B): No effect

SMILES: COc1cc2c(=O)oc3c(OC)c(OC)cc4c(=O)oc(c1OC)c2c34 [3,3′,4,4′-Tetra-O-methylellagic acid]
- IC50 (PTP-1B): 60.4 µM
- Antidiabetic Activity (α-Glucosidase) IC50 Values (α-glucosidase; in vitro enzyme inhibition): No effect

SMILES: O=c1c(O)c(-c2ccc(O)c(O)c2)oc2cc(O)cc(O)c12 [Quercetin]
- antidiabetic activities in the α-glucosidase inhibition assay (in words) (α-glucosidase; in vitro enzyme inhibition): potent antidiabetic activities

SMILES: COc1c(O)cc2c(=O)oc3c(OC)c(O)cc4c(=O)oc1c2c34 [3,3′-Di-O-methylellagic acid]
- IC50 (PTP-1B): 19 µM
- Antidiabetic Activity (α-Glucosidase) IC50 Values (α-glucosidase; in vitro enzyme inhibition): No effect

SMILES: Oc1cc(O)c2c(c1)O[C@H](c1cc(O)c(O)c(O)c1)[C@H](O)C2 [Epigallocatechin, (–)-Epigallocatechin (3,3′,4,5,5′,7-flavanhexol)]
- Antidiabetic Activity (PTP-1B) IC50 Values (PTP-1B): No effect

SMILES: CC[C@H](CC[C@@H](C)[C@H]1CC[C@H]2[C@@H]3CC=C4C[C@@H](O[C@@H]5O[C@H](CO)[C@@H](O)[C@H](O)[C@H]5O)CC[C@]4(C)[C@H]3CC[C@]12C)C(C)C [Daucosterol, β-Sitosterol-3-O-β-D-glucopyranoside]
- Antidiabetic Activity (PTP-1B) IC50 Values (PTP-1B): No effect
